Assay results reported in patent US7387779B2, “Anti-angiogenic proteins and fragments and methods of use thereof” (Beth Israel Deaconess Medical Center, priority 1998, dated 2008).

Legend:
Caspase-3 in C-PAE cells = assay: Caspase-3 assay; assay type: cell-based, bovine
Procedure: Tumstatin also altered cell morphology of C-PAE cells as monitored by phase contrast microscopy. After treating cells with 20 μg/ml of Tumstatin in the presence of 10% FCS for 24 hours on fibronectin-coated plates, the typical morphological features of apoptotic cells, membrane blebbing, cytoplasmic shrinkage, and chromatin condensation could be observed. […] Caspase-3 assay: Caspase-3 (CPP32) is an intracellular protease activated at the early stage of apoptosis, and initiates cellular breakdown by degrading structural and DNA repair proteins (Casciola-Rosen, L. et al., 1996, J. Exp. Med. 183:1957-64; Salvesen, G. S. et al., 1997, Cell 91:443-46). The protease activity of Caspase-3 was measured spectrophotometrically by detection of the chromophore (p-nitroanilide) cleaved from the labeled substrate (DEVD-pNA). C-PAE cells or PC-3 cells (0.5×10^6 per well) were plated onto a 6-well plate precoated with fibronectin (10 μg/ml) in DMEM supplemented with 10% FCS, and incubated overnight. The next day, the medium was replaced with DMEM containing 2% FCS and then incubated overnight at 37° C. Then cells were then stimulated with bFGF (3 ng/ml) in DMEM supplemented with 2% FCS, and also containing either TNF-α (80 ng/ml, positive control) or Tumstatin (10 μg/ml), and incubated for 24 hours. Controls received PBS buffer. After 24 hours, the supernatant cells were collected, and attached cells were trypsinized and combined with the supernatant cells. Cells were counted and resuspended in cell lysis buffer (Clontech) at a concentration of 4×10^7 cells/ml. The rest of the protocol followed the manufacturer's instructions (Clontech). A specific inhibitor of Caspase-3, DEVD-fmk (Asp-Glu-Val-Asp-fluoromethyl ketone) was used to confirm the specificity of the assay. The absorbance was measured in a microplate reader (Bio-Rad, Hercules, Calif., USA) at 405 nm. The assay was repeated three times for each cell type.
Apoptosis was also evaluated by measuring Caspase-3 activity as described in Example 27, above. The results are shown in FIG. 35, which is a histogram showing Caspase-3 activity as a measure of absorbance at OD405 (y-axis) of C-PAE cells treated (x-axis) with 5 μg/ml Tum-1, Tum-2, Tum-3 or Tum-4, or 80 ng/ml TNF-α or PBS buffer (control).
Caspase-3 activity was also assayed as described above. DEVD-fmk, a specific caspase-3 inhibitor, was used as an internal control to show specificity of Tumstatin-44-131. TNF-α (80 ng/ml) was used as a positive control. The experiments were repeated three times.
The protease activity of Caspase-3 in cells treated with T3 peptide was measured spectrophotometrically by detection of the chromophore (p-nitroanilide) cleaved from the labeled substrate (DEVD-pNA). […] In PC-3 nonendothelial cells, there was no difference in Caspase-3 activity between control treatments and T3 peptide-treated cells.

[1] = test system: MDAMB-435 tumor xenografts; assay: MDAMB-435 human breast tumor xenograft (Example 59); assay type: in vivo, nude NCRNU mice; settings: 3 weeks; for Final Tumor Weight (V/Vo) ± SEM: control 468.5 ± 48.06
Text: (§1) For tests involving the MDAMB-435 model, female nude NCRNU mice, 5-6 weeks old, weighing approximately 20 grams, were implanted with 2×10^6 MDAMB-435 cells into the subaxillary mammary fat pad. For tests involving the PC3 model, male nude NCRNU mice, 5-6 weeks old, weighing approximately 25 g were implanted with 2×10^6 PC3 cells into the dorsal subcutis. When the tumors were 100 mm^3 (for the MDAMB-435 model), or 60 mm^3 (for the PC3 model), the animals were pair-matched into treatment and control groups.
(§2) Each group contained 6-7 tumored mice, each of which was ear-tagged and followed individually throughout the experiment. Initial doses of peptide or vehicle control were given on the day of pair-matching (Day 0), and were administered daily via intraperitoneal (i.p.) injection at doses indicated. Mice were weighed weekly, and tumor measurements were taken by calipers weekly, starting on Day 0. These tumor measurements were converted to tumor volume by a well-known formula, (V=W^2×L/2) and mean tumor volumes were plotted against time. Mice were euthenized at the end of the treatment period. Upon termination, the mice were weighed, sacrificed and their tumors were excised. The mean tumor weight per group was calculated, and the mean treated tumor volume/control tumor volume×100 was subtracted from 100% to give the tumor growth inhibition (TGI) for each group.

PC3 tumor xenografts [2] = assay: PC3 human prostate tumor xenograft (Example 59); assay type: in vivo, nude NCRNU mice; settings: 3 weeks; for Final Tumor Weight (V/Vo) ± SEM: control 1070.0 ± 132.5
Text: as §1, §2

PC3 tumor xenografts [3] = assay: PC3 human prostate tumor xenograft (Example 58); assay type: in vivo, nude NCRNU mice; settings: 5.0 mg/kg i.p. daily, 3 weeks
Procedure: Male nude NCRNU mice, 5-6 weeks old, weighing approximately 25 grams, 6 were implanted with 2×10^6 PC3 cells into the dorsal subcutis. When the tumors were 60 mm^3, the animals were pair-matched into treatment and control groups. Each group contained 6-7 tumored mice, each of which was ear-tagged and followed individually throughout the experiment. Initial doses of peptide or vehicle control were given on the day of pair-matching (Day 0), and were administered via intraperitoneal (i.p.) injection at doses indicated. Mice were weighed weekly, and tumor measurements were taken by calipers weekly. These tumor measurements were converted to tumor volume by a well-known formula, (V=W^2×L/2), and mean tumor volumes were plotted against time. Mice were euthenized at the end of the treatment period. Upon termination, the mice were weighed, sacrificed and their tumors were excised. The mean tumor weight per group was calculated, and the value of mean treated tumor volume or volume ratio/mean control tumor volume or volume ratio×100 was subtracted from 100% to give the tumor growth inhibition (TG1) for each group. All groups received injections I.P. daily, except for two T8-treated groups, which were treated twice per week and once a week, respectively.

C-PAE cells = assay: Endothelial cell proliferation, methylene blue staining; assay type: cell-based, bovine
Procedure: A methylene blue staining test was also done. 3,100 cells were added to each well and treated as above, and cells were then counted using the method of Oliver et al. (Oliver, M. H. et al., 1989, J. Cell. Science 92:513-18). All wells were washed one time with […] of 1×PBS and the cells were fixed by adding […] of 10% formalin in neutral-buffered saline (Sigma Chemical Co., St. Louis, Mo., USA) for 30 minutes at room temperature. After formalin removal cells were stained with a solution of 1% methylene blue (Sigma Chemical Co.) in 0.01 M borate buffer (pH 8.5) for 30 minutes at room temperature. After removal of staining solution, the wells were washed 5 times with […] of 0.01 M borate buffer (pH 8.5). Methylene blue was extracted from the cells with […] of 0.1N HCi/ethanol (1:1 mixture) for 1 hour at room temperature. The amount of methylene blue staining was measured on a microplate reader (BioRad, Hercules, Calif., USA) using light absorbance at 655 nm wavelength.
In the methylene-blue staining method, 7000 cells were plated into each well of a 96-well plate, and treated as described above. Cells were then counted using the method of Oliver et al. (1989, J. Cell. Sci. 92:513-8). After 48 hours of treatment, all wells were washed with 100 μl of PBS, and the cells fixed with 10% formalin in neutral-buffered saline (Sigma Chemical Co., St. Louis, Mo., USA). The cells were then stained with 1% methylene blue (Sigma) in 0.01M borate buffer, pH 8.5. Wells were washed with 0.01M borate buffer, and the methylene blue extracted from the cells with 0.1N HCl/ethanol, and the absorbance measured in a microplate reader (Bio-Rad, Hercules, Calif., USA) at 655 nm. Polymyxin B (Sigma) at a final concentration of 5 μg/ml was used to inactivate endotoxin (Liu, S. et al., 1997, Clin. Biochem. 30:455-63).
Proliferation of endothelial cells (C-PAE cells) and WM-164 melanoma cells was assayed by methylene blue staining, as described above in Examples 25 and 34. The results are shown in FIGS. 33A and 33B, which are a pair of graphs showing the effect of increasing concentration (x-axis) of Tumstatin, Tum-1, Tum-2, Tum-3 and Tum-4 on the relative number (y-axis) of C-PAE cells (FIG. 33A) and WM-164 cells (FIG. 33B). […] Tum-4, however, did have anti-proliferative activity in this cell line. […] Only Tum-4 inhibited WM-164 melanoma cells.
For the proliferation assay, Canstatin, Can-1 and Can-2 soluble proteins (0.1-20.0 μg/ml) were added to the growth medium of proliferating C-PAE cells, which were stimulated with 10% FBS in DMEM, in addition to 5 ng/ml bFGF and 3 ng/ml VEGF. The results are shown in FIG. 40, which is a graph showing the effect of increasing concentrations of Canstatin (♦), Can-1 (▪) and Can-2 (▴) (x-axis) on the relative cell number (y-axis) of C-PAE cells. Each concentration of each protein was tested in quadruplicate. Bovine serum albumin (BSA) was used as a control treatment. Polymyxin B was used to control for endotoxin interference, and no differences were found between assays run with and without polymyxin B added to the medium. Cells were allowed to proliferate for 48 hours, and were then fixed, stained and the density read with a Bio-Rad plate reader (Bio-Rad, Hercules, Calif., USA). Canstatin and Can-1 both caused dose-dependent decreases in the percent cell number, and both reduced the number of cells by 80% at concentrations of 5 μg/ml and higher.
An endothelial cell proliferation assay was used to compare the activity of Tumstatin and some of the deletion mutants. Recombinant Tumstatin (28 kDa), Tumstatin-44-131 (12 kDa) and T3 peptide were used in a methylene blue proliferation assay in equimolar concentrations.

Row | Molecule | Final Tumor Weight (V/Vo) ± SEM ([1]; 1.0 mg/kg i.p. daily) | Final Tumor Weight (V/Vo) ± SEM ([1]; 5.0 mg/kg i.p. daily) | % Tumor growth inhibition (PC3 tumor xenografts [2]; 1.0 mg/kg i.p. daily) | Final Tumor Weight (V/Vo) ± SEM (PC3 tumor xenografts [2]; 1.0 mg/kg i.p. daily) | % Tumor growth inhibition (PC3 tumor xenografts [2]; 5.0 mg/kg i.p. daily) | Final Tumor Weight (V/Vo) ± SEM (PC3 tumor xenografts [2]; 5.0 mg/kg i.p. daily) | % Tumor growth inhibition ([1]; 5.0 mg/kg i.p. daily) | also measured
1 | CC(C)[C@H](NC(=O)[C@H](CCC(=O)O)NC(=O)[C@@H](N)CC(=O)O)C(=O)N[C@@H](CC(=O)O)C(=O)CF [DEVD-fmk, Asp-Glu-Val-Asp-fluoromethyl ketone, reference compound] |  |  |  |  |  |  |  | effect of specific Caspase-3 inhibitor on protease activity (Caspase-3 in C-PAE cells): decreased the protease activity to baseline
2 | KQRFTTMPFLFDNVNDVDNFASRNDYS (P2 (amino acids 68-94 of SEQ ID NO10; lysine has been substituted for the leucine residue at position 68 of the full-length Tumstatin molecule, and aspartic acid has been substituted for the cysteine residues at positions 79 and 85)) | 344.7 ± 34.20 | 380.5 ± 25.91 | 31.6% | 732.4 ± 85.96 | 15.9% | 899.7 ± 60.25 |  | % Tumor growth inhibition ([1]; 1.0 mg/kg i.p. daily): 26.4%
3 | KQRFTTMPFLFSNVNDVSNFASRNDYS (T8-3 (amino acids 68-94 of SEQ ID NO10; lysine has been substituted for the leucine residue at position 68 of the full-length Tumstatin molecule, and serine has been substituted for the cysteine residues at positions 79 and 85)) | 370.1 ± 68.17 | 272.4 ± 34.86 | 28.5% | 765.1 ± 133.6 | 35.4% | 691.5 ± 130.8 | 41.9% | 
4 | TFNCVKNYQRLDFTSRFVMDSCANFPN (Scrambled peptide SP2) [reference compound] |  | 527.2 ± 57.89 |  |  |  | 931.0 ± 112.3 | no tumor growth inhibition | % Tumor growth inhibition (PC3 tumor xenografts [3]): 18.7%; Final Tumor Weight (V/Vo) ± SEM (PC3 tumor xenografts [3]; T7 vehicle 5.626 ± 0.38, T8 vehicle 6.278 ± 1.483): 5.097 ± 0.185
5 | Tum-3: residues 133 to 244 of Tumstatin (SEQ ID NO:24) (protein, Tum-3 (amino acids 133-244 of SEQ ID NO10)) AVHSQTTDIPPCPHGWISLWKGFSFIMFTSAGSEGTGQALASPGSCLEEFRASPFLECHGRGTCNYYSNSYSFWLASLNPERMFRKPIPSTVKAGELEKIISRCQVCMKKRH |  |  |  |  |  |  |  | inhibition of proliferation of C-PAE cells (C-PAE cells; 15 μg/ml): did not inhibit; Relative Cell No. (%) C-PAE (C-PAE cells; 20% FCS, 15 μg/ml recombinant protein): 94.9 ± 3.1%; effect on Caspase-3 activity (Caspase-3 in C-PAE cells; 5 μg/ml): did not
